Test results taken from patent publication US11597737B2, “Small molecule inhibitors selective for polo-like kinase proteins” (UNIVERSITY OF SOUTH CAROLINA, priority 2016, dated 2023).
Where two headings read alike, the source gives them in different places.

Assays:
PLK1 PBD (367-603) = biological target: T1, PLK1 PBD (367-603) (Homo sapiens, UniProt P53350); experiment: Fluorescence polarization assay, PLK1 PBD; type: binding; conditions: for PLK1 versus PLK3 specificity (in words): PBD binding
T1 construct: PLK1 PBD (367-603); purchased BPS Biosciences Inc. (San Diego, Calif.)
Method: (§1) Fluorescence Polarization Assay
(§2) Materials were dissolved in DMSO (10 mM) and diluted from 10 nM to 600 μM (maximum of 6% DMSO tolerance in the assay). […] Incubation was carried out at room temperature for 45 minutes. Fluorescence was measured using a DTX 880 plate reader and Multimode Analysis software (Beckman Coulter, Brea, Calif.). […] Each data point was performed in triplicate for every experiment, and experiments were performed at least three times. An IC50 value for each compound was calculated from linear regression analysis of the plots.

[1] = Cell cycle analysis and caspase apoptosis assay; type: cell-based
Excerpt: Disclosed small molecule inhibitors can also encourage apoptosis.

[2] = Cytotoxicity, cell viability and apoptosis data, FIG. 12; type: cell-based; conditions: average from various assays
Excerpt: For instance, FIG. 12 presents cytotoxicity, cell viability, and apoptosis data for cells treated with inhibitor SCCP ID No: 6037. […] The data of FIG. 13 relates to SCCP ID No: 5914 and the data of FIG. 14 relates to SCCP ID No: 5915.

PC3 cells [3] = experiment: Cell cycle analysis after release (DAPI/BrdU FACS), FIG. 3; type: cell-based
Method: PLK specificity can be useful in therapeutic applications, as well as in research-oriented application.
(§3) Analysis of Cell Cycle Progression by FACS
(§4) Serum-Starved Synchronization
(§5) Cells were synchronized in G1 by serum starvation. Briefly, exponentially growing cells were plated overnight. Media (DMEM, 10% FBS, 1% Pen. Strep.) was then removed and replaced with media containing no FBS. Cells were starved for 72 hours then treated for 24 hours with inhibitor. Following treatment, cells were harvested and processed for endpoint experimental analysis.
(§6) Ethanol fixative was removed by centrifugation and the cells were washed with 1 mL ice-cold PBS/1% BSA. Cells were denatured by resuspending in 0.2 mg/mL pepsin in 2N HCl and incubated in 37° C. water bath for 15 minutes. Hydrolysis was then terminated by adding 1 M Invitrogen™ Novex® Tris-Glycine. Cells were then washed with PBS/1% BSA then the primary anti-BrdU antibody (1:100 dilution in TBFP; 0.5% Tween-20, 1% BSA, 1% FBS, PBS) was added and cells were incubated for 25 minutes in the dark, at room temperature. […] Cells were washed once more with PBS/1% BSA and re-suspended in DAPI for 30 minutes before being analyzed by flow cytometry.

[4] = test system: HeLa cervical cancer cells; experiment: Cell viability assay (MTT), HeLa; type: cell-based; conditions: read-out: HeLa
Method: HeLa cervical cancer cells were obtained from ATCC (Manassas, Va.). […] Cells were maintained in DMEM (Invitrogen™, Carlsebad, Calif.) supplemented with 10% FBS or Corning© Nu-Serum™ (BD™ Biosciences, Franklin Lakes, N.J.) and 1% penicillin/streptomycin (Invitrogen™) in a humidified incubator and 5% CO2 at 37° C.
(§7) Exponentially growing cells were plated in 96-well dishes. Dose response curves were used to treat cells for 72 hours with inhibitors. Following the three-day treatment, cell viability was measured using the MTT (3-(4,5-dimethylthiazol-2-yl)-2,5-diphenyltetrazolium bromide) colorimetric assay. Cells were incubated for 3 hours with MTT allowing viable cells to metabolize the tetrazolium dye to a purple colored solution.

PC3 cells [5] = experiment: Cell cycle analysis and BrdU pulse labeling in PC3 cells, FIG. 9-11; type: cell-based
Method: as §3, §4, §5, §6
The PLK1 PBD-inhibitors were analyzed further by cell cycle analysis in PC3 cells (FIG. 9). […] To quantify the percentage of cells actively proliferating (synthesizing their DNA) or arrested Bromodeoxyuridine (BrdU) pulse labeling was carried out and analyzed by flow cytometry.

[6] = test system: PTEN deficient prostate cancer (PC3) cells; experiment: Cell viability assay (MTT), PC3; type: cell-based; conditions: read-out: PCC-3
Method: (§8) PC3 prostate cancer cells were maintained in DMEM (Invitrogen™, Carlsebad, Calif.) supplemented with 10% FBS or Corning® Nu-Serum™ (BD™ Biosciences, Franklin Lakes, N.J.) and 1% penicillin/streptomycin (Invitrogen™) in a humidified incubator and 5% C02 at 37° C.
as §7

[7] = test system: WT Retinal Pigment Epithelial (RPE) cells; experiment: Cell viability assay, WT RPE cells; type: cell-based; conditions: FIG. 7, FIG. 8
Method: as §8, with “Retinal Pigment Epithelial (RPE)” for “PC3 prostate cancer”, “1:1 DMEM/Hams F-12” for “DMEM”, “Calif.; Corning® Cellgro, Manassas, Va.), and” for “Calif.)”
as §7

[8] = test system: HCT-116 (p53−/−) colon cancer cells; experiment: Cell viability assay (MTT), HCT116 p53-/-; type: cell-based
Method: HCT-116 (p53+/+ and −/−) colon cancer cells were maintained DMEM (Invitrogen™, Carlsebad, Calif.) supplemented with 10% FBS or Nu-serum (BD™ Biosciences, Franklin Lakes, N.J.) and 1% penicillin/streptomycin (Invitrogen™) in a humidified incubator and 5% C02 at 37° C.
as §7, with “solution. Absorbance measurements (595 nm) were quantified using a DTX 880 plate reader and IC50 values were generated for FLIPs.” for “solution.”

[9] = test system: mutant (C67V) PLK1 RPE cells; experiment: Cell viability assay, PLK1 C67V mutant RPE cells; type: cell-based; conditions: FIG. 6-8
Method: as §8, with “Retinal Pigment Epithelial (RPE)” for “PC3 prostate cancer”, “1:1 DMEM/Hams F-12” for “DMEM”, “Calif.; Corning® Cellgro, Manassas, Va.), and” for “Calif.)”
as §7

[10] = test system: KRAS mutant lung cancer (A-549) cells; experiment: Cell viability assay (MTT), A-549; type: cell-based
Method: A-549 lung cancer cells were maintained in Hams F-12 1× with glutamine (Corning® Cellgro, Manassas, Va.), and supplemented with 10% FBS or Corning® Nu-Serum™ (BD™ Biosciences, Franklin Lakes, N.J.) and 1% penicillin/streptomycin (Invitrogen™) in a humidified incubator and 5% C02 at 37° C.
as §7, with “solution. Absorbance measurements (595 nm) were quantified using a DTX 880 plate reader and IC50 values were generated for FLIPs.” for “solution.”

PLK3 PBD (335-646) = biological target: T2, PLK3 PBD (335-646) (Homo sapiens, UniProt Q9H4B4); experiment: Fluorescence polarization assay, PLK3 PBD; conditions: PLK3 PBD binding
T2 construct: PLK3 PBD (335-646); purchased BPS Biosciences Inc. (San Diego, Calif.)
T2 sequence (Q9H4B4 335-646): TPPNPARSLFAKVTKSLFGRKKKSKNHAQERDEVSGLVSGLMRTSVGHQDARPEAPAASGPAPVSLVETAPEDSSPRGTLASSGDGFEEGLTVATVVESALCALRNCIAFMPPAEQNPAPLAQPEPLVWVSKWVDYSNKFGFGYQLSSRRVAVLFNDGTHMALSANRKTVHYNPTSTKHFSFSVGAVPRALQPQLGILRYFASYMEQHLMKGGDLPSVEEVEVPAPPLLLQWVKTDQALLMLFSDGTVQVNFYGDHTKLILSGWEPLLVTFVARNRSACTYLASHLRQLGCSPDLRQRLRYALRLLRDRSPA
Method: as §1, §2

[11] = PLK1 PBD binding, fluorescence polarization, read-out: PLK1 IC50
[12] = Table 1, fluorescence polarization, read-out: PLK1 PBD IC50

T1 sequence (P53350 367-603): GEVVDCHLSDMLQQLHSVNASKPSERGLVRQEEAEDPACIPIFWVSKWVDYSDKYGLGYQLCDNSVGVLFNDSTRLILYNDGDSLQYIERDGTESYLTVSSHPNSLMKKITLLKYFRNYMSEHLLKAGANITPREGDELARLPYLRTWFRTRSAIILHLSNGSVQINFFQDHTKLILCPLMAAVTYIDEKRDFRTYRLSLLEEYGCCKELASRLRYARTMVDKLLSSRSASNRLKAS

In the case of CCCCCCc1ccc(C(=O)Nc2ccccc2C(=O)O)cc1 [SCCP ID No. 5881], the “binding to the PLK1 PBD (in words)” value (PLK1 PBD (367-603); fluorescence polarization) is reported as “low micromolar activity”.
For CCCCCCCCCCCCc1ccc(C(=O)Nc2ccccc2C(=O)O)cc1 [SCCP ID No. 6037], the “PLK1 versus PLK3 specificity (in words)” value (PLK1 PBD (367-603)) was “selectivity for PLK3”, the IC50 (PLK1 PBD (367-603); [11]) was 5.97 ± 0.38 µM and the “levels of apoptosis (in words)” value [1] was “high levels of apoptosis”. The cell viability [2] was 15.6 ± 3.4 µM, the cytotoxicity [2] was 14.8 ± 3.6 µM and the “G2/M by DAPI” value (PC3 cells [3]; 5 μM) was 7%. For the same molecule, the “BrdU+” value (PC3 cells [3]; 5 μM, FIG. 3 2nd panel) was 27%, the “G1 by DAPI” value (PC3 cells [3]; 5 μM, FIG. 3 2nd panel) was 77% and the “S by DAPI” value (PC3 cells [3]; 5 μM, FIG. 3 2nd panel) was 15%. For the same molecule, the “G2/M by DAPI” value (PC3 cells [3]; 20 μM, FIG. 3 3rd panel) was 28%, the IC50 ([4]; Homo sapiens, HeLa, 72 h) was 14 ± 3.5 µM and the “cells replicating their DNA (BrdU labeling)” value (PC3 cells [5]; 5 μM) was 75.7%. For the same molecule, the “BrdU+” value (PC3 cells [5]; 15 μM) was 1.9%, the “cell cycle phenotype (in words)” value (PC3 cells [5]; 15 μM) was “G1 arrest” and the “cell cycle phenotype (in words)” value (PC3 cells [5]; both the lower (5 μM) and higher (15 μM) dose, FIG. 11) was “G1 accumulation”. For the same molecule, the IC50 ([6]; Homo sapiens, PC-3, 72 h) was 9.4 ± 0.8 µM.
With CCCCCCCCc1ccc(C(=O)Nc2ccccc2C(=O)OCC)cc1 [SCCP ID No. 5914] the IC50 (PLK1 PBD (367-603); [11]) was over 600 µM, the “levels of apoptosis (in words)” value [1] was “virtually none” and the IC50 ([4]; Homo sapiens, HeLa, 72 h) was over 100 µM. The IC50 ([6]; Homo sapiens, PC-3, 72 h) was over 100 µM.
For CCCCCCCCc1ccc(C(=O)Nc2ccccc2C(=O)O)cc1 [SCCP ID No. 5912], the “PLK1 versus PLK3 specificity (in words)” value (PLK1 PBD (367-603)) was “relatively equipotent for PLK1 and PLK3 PBD binding”, the “sensitivity of cells containing wild type PLK1 (in words)” value [7] was “sensitive” and the IC50 ([8]; Homo sapiens, HCT-116, 72 hours) was 8 ± 1.7 µM. The “sensitivity of cells containing mutant (C67V) PLK1 (in words)” value [9] was “sensitive”, the IC50 ([10]; Homo sapiens, A549, 72 hours) was 2.8 ± 0.1 µM and the “cell cycle phenotype (in words)” value (PC3 cells [5]; 15 μM) was “S phase delay”.
For CCCCCCc1ccc(C(=O)Nc2ccc(C)cc2C(=O)O)cc1 [SCCP ID No. 5924], the IC50 (PLK1 PBD (367-603); [11]) was over 600 µM, the “binding to the PLK1 PBD (in words)” value (PLK1 PBD (367-603); fluorescence polarization) was “no binding to PLK1” and the IC50 (PLK3 PBD (335-646)) was 24.5 µM.
Work on CCCCCCCCc1ccc(C(=O)Nc2cccc(C(F)(F)F)c2C(=O)O)cc1 [SCCP ID No. 5945] yielded an IC50 ([8]; 72 hours) of 24.9 ± 2 µM, an IC50 ([10]; 72 hours) of 13.3 ± 0.8 µM and an IC50 ([4]; MTT, 72 hours) of 20.1 ± 3.1 µM. For the same molecule, the IC50 ([6]; MTT, 72 hours) was 27.9 ± 2.6 µM.
In the case of CCCCCCCCc1ccc(C(=O)NCCC(=O)O)cc1 [SCCP ID No. 5975], the IC50 (PLK1 PBD (367-603); [12]) is reported as over 200 µM.
For CCCCCCc1ccc(C(=O)Nc2ccccc2OP(=O)(O)O)cc1 [SCCP ID No. 5940], the IC50 (PLK1 PBD (367-603); [11]) was over 600 µM and the “binding to the PLK1 PBD (in words)” value (PLK1 PBD (367-603); fluorescence polarization) was “No binding was observed”.
In the case of CCCCc1ccc(C(=O)Nc2ccc(C(=O)O)cc2)cc1 [SCCP ID No. 5880], the IC50 (PLK1 PBD (367-603); [11]) is reported as over 600 µM and the “binding to the PLK1 PBD (in words)” value (PLK1 PBD (367-603); fluorescence polarization) is reported as “did not bind”.
CCCCCCCCc1ccc(C(=O)Nc2cccc(O)c2C(=O)O)cc1 [SCCP ID No. 5946] showed an IC50 ([4]; MTT, 72 hours) of 33.6 ± 2.6 µM and an IC50 ([6]; MTT, 72 hours) of 34.2 ± 2.5 µM.
For CCCCCCc1ccc(C(=O)Nc2ncccc2C(=O)O)cc1 [SCCP ID No. 5904], the IC50 (PLK1 PBD (367-603); [12]) was over 600 µM.
For CCCCCCCCc1ccc(C(=O)Nc2ccc(OC)cc2C(=O)O)cc1 [SCCP ID No. 5935], the IC50 (PLK1 PBD (367-603); [11]) was 5.89 ± 1.25 µM and the “cell cycle phenotype (in words)” value (PC3 cells [5]; 15 μM) was “G1 delay or arrest”.
